{
  "source": "patent US20220249399A1",
  "about": "“COMPOSITION COMPRISING AN ANTI-OXIDANT TO PRESERVE CORNEAL TISSUE” (University of lowa Research Foundation, priority 2019, published 2022)",
  "key": {"[1]": {"system": "human donor corneal endothelial cells", "assay": "Apoptosis and necrosis assays on donor endothelial cell-Descemet membrane tissue after storage", "assay_type": "cell-based", "conditions": "for corneal endothelial cell necrosis, change vs control: vs diluent control", "description": "Human corneal tissue pairs were obtained by Iowa Lions Eye Bank (ILEB) from nondiabetic donors 60-75 years old and stored in Optisol GS (Bausch+Lomb, Irvine, Calif.) at 4° C. following procurement in accordance with Eye Bank Association of America and ILEB policies and procedures. […] Descemet membrane and endothelial cell punches were collected and mounted onto the bottom of a Seahorse assay plate (cells facing upward). Mitochondrial respiration was assayed by measuring oxygen consumption using the Seahorse XFe24 Extracellular Flux Analyzer (Agilent Technologies, Santa Clara, Calif.) over 120 minutes (9-minute intervals). Punches were labeled with a nuclear counterstain (DAPI) and remaining tissues were mounted onto slides and labeled with 488A-Annexin V, Ethidium Homodimer III, and Hoechst 33342 (Apoptotic, Necrotic, and Healthy Cells Quantification Kit; Biotium, Fremont, Calif.) to assay cell health. Nuclei were counted in each punch to normalize respirometry data. Immunohistochemistry densitometry was measured using ImageJ software.\n(§1) Human corneal tissue pairs were obtained by Iowa Lions Eye Bank (ILEB) from nondiabetic donors 60-75 years old and stored in Optisol GS (Bausch+Lomb, Irvine, Calif.) at 4° C. following procurement in accordance with Eye Bank Association of America and ILEB policies and procedures. For 5 days prior to testing, but within 9 days of procurement, one stored tissue from a corneal pair was treated with 10 μM CoQ10, while the mate tissue was treated with diluent only as a control. Descemet membrane and endothelial cell punches were collected and mounted onto the bottom of a Seahorse assay plate (cells facing upward). Mitochondrial respiration was assayed by measuring oxygen consumption using the Seahorse XFe24 Extracellular Flux Analyzer (Agilent Technologies, Santa Clara, Calif.) over 120 minutes (9-minute intervals). Punches were labeled with a nuclear counterstain (DAPI) and remaining tissues were mounted onto slides and labeled with 488A-Annexin V, Ethidium Homodimer III, and Hoechst 33342 (Apoptotic, Necrotic, and Healthy Cells Quantification Kit; Biotium, Fremont, Calif.) to assay cell health. Nuclei were counted in each punch to normalize respirometry data. Immunohistochemistry densitometry was measured using ImageJ software.\nas §1, with “100” for “10”, “palmitate-BSA,” for “CoQ10,”, “BSA” for “diluent”\nIn brief, excess EDM tissues from surrounding the punches used for metabolic assays were incubated with 488A-Annexin V, Ethidium Homodimer III, and Hoechst 33342 (Apoptotic, Necrotic, and Healthy Cells Quantification Kit; Biotium, Fremont, Calif.) to detect the apoptotic, necrotic, and entire cell populations, respectively. […]"}, "[2]": {"system": "primary cultures of corneal endothelial cells", "assay": "Seahorse XFe96 mitochondrial respiration of primary cultures of corneal endothelial cells", "assay_type": "cell-based, human", "conditions": "uncomplexed coenzyme Q10 (100 μM) or cyclodextrin alone vs diluent control", "description": "(§2) Human corneas were obtained by Iowa Lions Eye Bank (ILEB) from nondiabetic donors 60-75 years old and stored in Optisol GS (Bausch+Lomb, Irvine, Calif.) at 4° C. following procurement in accordance with Eye Bank Association of America and ILEB policies and procedures. Endothelial cells were isolated and cultured in Seahorse XFe96 well plates until they reached confluency. Purity of cell cultures were confirmed with anti-zonula occludens 1 (ZO-1) labeling of cellular tight junctions. Once confluent, cells were treated with different concentrations of cyclodextrin-coenzyme Q10 complex in culture (1 μM, 10 μM, or 100 μM) uncomplexed coenzyme Q10 (100 μM), cyclodextrin alone, or diluent control. Mitochondrial respiration was assayed by measuring oxygen consumption using the Seahorse XFe96 Extracellular Flux Analyzer (Agilent Technologies, Santa Clara, Calif.) over 120 minutes (9-minute intervals). Wells were labeled with a nuclear counterstain (DAPI) and nuclei were counted in each well to normalize respirometry data.\nSeahorse respiration assays were conducted with MitoQ with doses ranging from 0 to 10 μM. All experiments were performed on corneal endothelial cells in culture and analyzed using the XFe96 Extracellular Flux Analyzer.\nas §2, with “MitoQ with doses ranging from 0 to” for “different concentrations of cyclodextrin-coenzyme Q10 complex in culture (1 μM,”, “μM.” for “μM, or 100 μM) uncomplexed coenzyme Q10 (100 μM), cyclodextrin alone, or diluent control.”"}, "[3]": {"assay": "Stability in water (yellowish discoloration = oxidation to ubiquinone)", "assay_type": "physicochemical", "conditions": "shaken in water for 24 h", "description": "• γ-CD was dissolved in water at different concentrations, and ubiquinol was added to it while stirring (protected from light). • Stirring continues for 2-5 days. Finally, the formed precipitate (complex) was collected and dried. • Yellow discoloration, which indicates the oxidation of ubiquinol following the formation of the yellow oxidized form (ubiquinone), was noticeable at different degrees depending on the stirring time.\nIn FIG. 11, the image on the right is 5 mg of CoQ10 added to 10 ml H2O and shaken for 24 hours. […] The instability of ubiquinol in water after both free drug or the complex was stirred in water for 24 h explains why the kneading method that involves the minimum amount of water was chosen form preparation."}, "[4]": {"system": "human donor corneal endothelial cells", "assay": "Mitochondrial respiration assay (Seahorse XFe24 extracellular flux analyzer) of donor corneal endothelium after storage in supplemented Optisol GS", "assay_type": "cell-based", "conditions": "1 μM coQ10, tissues in storage"}, "[5]": {"conditions": "10 μM ubiquinol vs diluent-treated mate cornea, 5 days, n = 9"}, "[6]": {"conditions": "10 μM ubiquinol, 5 days in Optisol-GS, n = 9 matched tissues"}, "[7]": {"conditions": "palmitate-BSA treated tissues (100 μM), 5 days, n = 8 matched tissues"}},
  "data": [
    {"substance": "ubiquinol", "values": [
      {"measurement": "protection against apoptosis and necrosis", "setting": "[1]; 1 μM coQ10, tissues in storage", "result": "protected not only against apoptosis, but also against necrosis"},
      {"measurement": "apoptosis reduced in treated cells", "setting": "[1]; 10 μM CoQ10, 5 days in Optisol GS, vs diluent control (p=0.09)", "result": 29, "unit": "%"},
      {"measurement": "corneal endothelial cell necrosis, change vs control", "setting": "[1]; 10 μM CoQ10, 5 days in Optisol GS, listed as CoQ10", "result": "not changed"},
      {"measurement": "corneal endothelial cell necrosis, change vs control", "setting": "[1]; 10 μM CoQ10, 5 days in Optisol GS, listed as co-Q10", "result": "did not change"},
      {"measurement": "corneal endothelial cell necrosis, change vs control", "setting": "[1]; 10 μM CoQ10, 5 days in Optisol GS, listed as coenzyme Q10", "result": "did not change"},
      {"measurement": "% Apoptotic, Mean Ratio: Ubiquinol/Control (95% CI)", "setting": "[1]; [5]", "result": "Ratio: 0.90 (0.63, 1.29)"},
      {"measurement": "% Necrotic, Mean Ratio: Ubiquinol/Control (95% CI)", "setting": "[1]; [5]", "result": "Ratio: 1.02 (0.91, 1.15)"},
      {"measurement": "% Apoptotic, Mean (SD)", "setting": "[1]; [6]", "result": "0.0040 (0.0047) %"},
      {"measurement": "% Necrotic, Mean (SD)", "setting": "[1]; [6]", "result": "0.0263 (0.0070) %"},
      {"measurement": "apoptosis, change vs controls", "setting": "[1]; Example 13: 10 μM ubiquinol, 5 days in Optisol-GS (p=0.517)", "result": "no significant change"},
      {"measurement": "cell necrosis, change vs controls", "setting": "[1]; Example 13: 10 μM ubiquinol, 5 days in Optisol-GS (p=0.694)", "result": "no significant change"},
      {"measurement": "% Apoptotic, Mean (SD)", "setting": "[1]; [7]", "result": "0.00053 (0.00062) %"},
      {"measurement": "% Necrotic, Mean (SD)", "setting": "[1]; [7]", "result": "0.0628 (0.0532) %"},
      {"measurement": "CEC cell death in storage", "setting": "[1]; ubiquinol supplemented corneal storage medium vs non-supplemented", "result": "decreased"},
      {"measurement": "mitochondrial spare respiratory capacity", "setting": "[2]", "result": "reduces mitochondrial spare respiratory capacity"},
      {"measurement": "stability in water (discoloration)", "setting": "[3]", "result": "yellowish discoloration was noticeable"},
      {"measurement": "proton leak", "setting": "[4]", "result": "no increase in proton leak"}
    ]}
  ]
}
